Data taken from US20100056524A1, “Compound” (priority 2008, published 2010).
Where a name gives a salt, the structure may show the parent alone. Read-outs that look alike come from different tables or passages of the source.

How the values were obtained:
Type in all cases: biochemical
RSK2 = molecular target: T1, RSK2 (Homo sapiens, UniProt P51812); assay: RSK2 protein kinase assay; settings: for remaining activity at 1 µM: 1 μM compound; for remaining activity at 10 µM: 10 μM compound; for residual kinase activity RSK2: 1 μm compound
T1 construct: All protein kinases were of human origin and encoded full length proteins, unless indicated otherwise; made in house
T1 sequence (P51812 whole entry): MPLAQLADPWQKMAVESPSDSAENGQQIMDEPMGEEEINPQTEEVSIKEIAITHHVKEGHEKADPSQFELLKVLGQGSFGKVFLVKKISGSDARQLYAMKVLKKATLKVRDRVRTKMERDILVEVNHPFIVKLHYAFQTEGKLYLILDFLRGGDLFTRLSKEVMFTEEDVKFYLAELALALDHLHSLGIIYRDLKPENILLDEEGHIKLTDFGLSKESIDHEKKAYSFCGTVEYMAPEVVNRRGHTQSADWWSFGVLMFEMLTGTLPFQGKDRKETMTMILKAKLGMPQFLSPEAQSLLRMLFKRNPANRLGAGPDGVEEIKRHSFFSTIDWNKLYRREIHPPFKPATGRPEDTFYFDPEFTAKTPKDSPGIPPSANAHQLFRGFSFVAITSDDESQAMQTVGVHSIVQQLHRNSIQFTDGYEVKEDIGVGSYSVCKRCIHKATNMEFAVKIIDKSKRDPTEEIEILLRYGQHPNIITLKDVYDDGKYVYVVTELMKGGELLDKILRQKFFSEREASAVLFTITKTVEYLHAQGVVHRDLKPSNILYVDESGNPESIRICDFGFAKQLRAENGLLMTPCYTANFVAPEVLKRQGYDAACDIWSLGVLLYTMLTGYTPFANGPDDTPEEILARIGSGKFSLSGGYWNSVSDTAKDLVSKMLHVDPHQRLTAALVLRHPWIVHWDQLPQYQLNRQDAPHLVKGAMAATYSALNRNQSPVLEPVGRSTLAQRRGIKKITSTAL
Description: (§1) All protein kinases were of human origin and encoded full length proteins, unless indicated otherwise. They were either expressed as glutathione S-transferase (GST) fusion proteins in Escherichia Coli or as hexahistidine (His6)-tagged proteins in insect Sf21 cells. GST fusion proteins were purified by affinity chromatography on glutathione-Sepharose, and His6-tagged proteins on nickel/nitriloacetate-agarose. The procedures for expressing some of the protein kinases used herein have been detailed previously.^8,9 The following sections outline the DNA vectors synthesised and the procedures used to express and purifying protein kinases that have not been reported previously.
(§2) All assays (25.5 μl) were carried out at room temperature (21° C.) and were linear with respect to time and enzyme concentration under the conditions used. Assays were performed for 30 min using Multidrop Micro reagent dispensers (Thermo Electron Corporation, Waltham, Mass. 02454, USA) in a 96-well format. The concentration of magnesium acetate in the assays was 10 mM and the [γ-33P] ATP (800 cpm/pmol) was used at 5, 20 or 50 μM as indicated, in order to be at or below the Km for ATP for each enzyme. Protein kinases assayed at 5 μM ATP were: —ERK1, ERK8, PKBα, MARK3, Aurora C. Protein kinases assayed at 20 μM ATP were: —JNK1, PDK1, CHK1, CHK2, CDK2 and Aurora B. Protein kinases assayed at 50 μM ATP were: —MNK2, IKKepsilon and TBK1.
(§3) The assays were initiated with MgATP, stopped by addition of 5 μl of 0.5 M orthophosphoric acid and spotted on to P81 filterplates using a unifilter harvester (PerkinElmer, Boston, Mass. 02118, USA). The IC50 values of inhibitors were determined after carrying out assays at 10 different concentrations of each compound.
(§4) Unless stated otherwise, enzymes were diluted in 50 mM Tris/HCl pH 7.5, 0.1 mM EGTA, 1 mg/ml BSA, 0.1% (v/v) 2-mercaptoethanol and assayed in 50 mM Tris/HCl pH 7.5, 0.1 mM EGTA, 0.1% (v/v) 2-mercaptoethanol.

PDK1 = molecular target: T2, PDK1 (Homo sapiens, UniProt O15530); assay: PDK1 protein kinase assay; settings: for remaining activity at 1 µM: 1 μM compound; for remaining activity at 10 µM: 10 μM compound; for residual kinase activity PDK1: 1 μm compound
T2 construct: 3-phosphoinositide-dependent protein kinase-1 [52-556]; His6; made in house; host or cells: insect Sf21 cells
T2 sequence (O15530 52-556): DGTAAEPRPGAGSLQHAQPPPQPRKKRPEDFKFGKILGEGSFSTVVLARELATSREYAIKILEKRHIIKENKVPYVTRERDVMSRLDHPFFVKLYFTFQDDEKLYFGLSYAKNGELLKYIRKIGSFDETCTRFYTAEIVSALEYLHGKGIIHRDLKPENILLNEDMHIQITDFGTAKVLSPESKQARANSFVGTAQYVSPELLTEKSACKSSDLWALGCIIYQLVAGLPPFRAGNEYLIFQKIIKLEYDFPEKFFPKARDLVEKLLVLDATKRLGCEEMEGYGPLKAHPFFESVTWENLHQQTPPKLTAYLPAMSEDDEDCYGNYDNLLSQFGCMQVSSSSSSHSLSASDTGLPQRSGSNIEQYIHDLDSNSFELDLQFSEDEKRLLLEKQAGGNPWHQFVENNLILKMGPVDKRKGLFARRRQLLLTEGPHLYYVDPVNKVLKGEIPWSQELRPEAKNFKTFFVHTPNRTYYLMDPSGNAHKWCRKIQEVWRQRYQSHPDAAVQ
Description: as §1
The following kinases were expressed in Sf21 cells: Aurora B and Aurora C, extra-cellular signal-regulated kinase 8 (ERK8), microtubule affinity regulating kinase 3 (MARK3), protein kinase Bα[118-480][S473D], protein kinase Bβ (PKBβ[120-481][S474D], 3-phosphoinositide-dependent protein kinase-1 [52-556]
as §2, §3, §4

BRSK2 = molecular target: T3, BRSK2 (Homo sapiens, UniProt Q8IWQ3); assay: BRSK2 protein kinase assay; settings: for remaining activity at 1 µM: 1 μM compound; for remaining activity at 10 µM: 10 μM compound; for residual kinase activity BRSK2: 1 μm compound
T3 construct: All protein kinases were of human origin and encoded full length proteins, unless indicated otherwise; made in house
T3 sequence (Q8IWQ3 1-736): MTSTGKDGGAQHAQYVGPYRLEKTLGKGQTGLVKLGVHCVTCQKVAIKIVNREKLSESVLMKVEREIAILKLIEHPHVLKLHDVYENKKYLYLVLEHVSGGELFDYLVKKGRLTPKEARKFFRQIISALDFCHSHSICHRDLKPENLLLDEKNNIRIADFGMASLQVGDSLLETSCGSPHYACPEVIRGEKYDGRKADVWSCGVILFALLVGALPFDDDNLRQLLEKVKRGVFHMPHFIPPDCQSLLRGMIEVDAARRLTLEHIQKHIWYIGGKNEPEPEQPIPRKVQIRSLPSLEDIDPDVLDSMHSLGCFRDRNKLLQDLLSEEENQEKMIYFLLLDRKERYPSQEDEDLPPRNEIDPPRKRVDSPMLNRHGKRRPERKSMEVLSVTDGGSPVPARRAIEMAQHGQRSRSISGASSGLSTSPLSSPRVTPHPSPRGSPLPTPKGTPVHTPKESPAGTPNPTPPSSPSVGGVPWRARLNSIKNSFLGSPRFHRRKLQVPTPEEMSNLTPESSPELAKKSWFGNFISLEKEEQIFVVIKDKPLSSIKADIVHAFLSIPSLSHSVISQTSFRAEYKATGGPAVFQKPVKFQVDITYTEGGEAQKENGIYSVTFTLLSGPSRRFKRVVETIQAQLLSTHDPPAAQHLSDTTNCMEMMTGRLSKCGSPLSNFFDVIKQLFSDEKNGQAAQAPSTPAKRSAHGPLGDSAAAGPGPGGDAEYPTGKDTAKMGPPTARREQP
Description: as §1, §2, §3, §4

PAK5 = molecular target: T4, PAK5 (Homo sapiens, UniProt Q9P286); assay: PAK5 protein kinase assay; settings: for remaining activity at 1 µM: 1 μM compound; for remaining activity at 10 µM: 10 μM compound; for residual kinase activity PAK5: 1 μm compound
T4 construct: All protein kinases were of human origin and encoded full length proteins, unless indicated otherwise; made in house
T4 sequence (Q9P286 425-719 limits assumed): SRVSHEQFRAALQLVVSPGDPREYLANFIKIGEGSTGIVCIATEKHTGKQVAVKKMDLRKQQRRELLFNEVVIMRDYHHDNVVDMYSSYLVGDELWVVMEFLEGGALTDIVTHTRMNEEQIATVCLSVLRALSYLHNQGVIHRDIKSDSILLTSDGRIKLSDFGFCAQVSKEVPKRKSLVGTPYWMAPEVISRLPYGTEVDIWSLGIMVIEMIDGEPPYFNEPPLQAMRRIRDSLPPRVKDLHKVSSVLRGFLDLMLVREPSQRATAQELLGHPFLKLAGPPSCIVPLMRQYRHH
Description: as §1, §2, §3, §4

CSK = molecular target: T5, CSK (Homo sapiens, UniProt P41240); assay: CSK protein kinase assay; settings: for remaining activity at 1 µM: 1 μM compound; for remaining activity at 10 µM: 10 μM compound; for residual kinase activity CSK: 1 μm compound
T5 construct: All protein kinases were of human origin and encoded full length proteins, unless indicated otherwise; made in house
T5 sequence (P41240 whole entry): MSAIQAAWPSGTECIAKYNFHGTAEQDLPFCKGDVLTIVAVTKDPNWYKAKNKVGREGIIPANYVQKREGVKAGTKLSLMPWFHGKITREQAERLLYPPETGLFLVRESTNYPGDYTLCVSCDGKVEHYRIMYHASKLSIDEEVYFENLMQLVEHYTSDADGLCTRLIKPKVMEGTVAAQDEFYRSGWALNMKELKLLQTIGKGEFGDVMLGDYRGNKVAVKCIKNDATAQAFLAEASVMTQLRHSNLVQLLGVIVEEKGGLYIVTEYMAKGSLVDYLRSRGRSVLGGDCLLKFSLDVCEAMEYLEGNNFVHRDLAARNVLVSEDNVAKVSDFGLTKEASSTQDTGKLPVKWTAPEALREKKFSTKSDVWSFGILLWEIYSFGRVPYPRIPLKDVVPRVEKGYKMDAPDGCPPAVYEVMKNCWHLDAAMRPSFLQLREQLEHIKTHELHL
Description: as §1, §2, §3, §4

BTK = molecular target: T6, BTK (Homo sapiens, UniProt Q06187); assay: BTK protein kinase assay; settings: for remaining activity at 1 µM: 1 μM compound; for remaining activity at 10 µM: 10 μM compound; for residual kinase activity BTK: 1 μm compound
T6 construct: All protein kinases were of human origin and encoded full length proteins, unless indicated otherwise; made in house
T6 sequence (Q06187 whole entry): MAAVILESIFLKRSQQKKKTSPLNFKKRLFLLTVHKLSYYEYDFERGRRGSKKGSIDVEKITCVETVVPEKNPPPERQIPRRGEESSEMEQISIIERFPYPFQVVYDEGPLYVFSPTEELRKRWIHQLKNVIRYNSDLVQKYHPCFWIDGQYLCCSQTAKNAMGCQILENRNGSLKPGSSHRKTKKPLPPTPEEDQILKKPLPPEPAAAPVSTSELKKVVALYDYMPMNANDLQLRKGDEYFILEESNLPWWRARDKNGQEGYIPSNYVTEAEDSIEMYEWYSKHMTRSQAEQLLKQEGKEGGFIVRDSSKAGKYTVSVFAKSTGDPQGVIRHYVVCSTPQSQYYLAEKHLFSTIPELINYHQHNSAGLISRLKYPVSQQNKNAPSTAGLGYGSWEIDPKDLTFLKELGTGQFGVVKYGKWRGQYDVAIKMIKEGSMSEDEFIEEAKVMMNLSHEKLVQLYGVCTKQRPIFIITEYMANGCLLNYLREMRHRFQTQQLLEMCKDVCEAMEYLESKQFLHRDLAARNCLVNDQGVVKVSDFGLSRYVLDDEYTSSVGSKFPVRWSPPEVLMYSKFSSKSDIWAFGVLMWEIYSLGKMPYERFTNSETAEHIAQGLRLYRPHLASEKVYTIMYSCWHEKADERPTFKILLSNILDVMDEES
Description: as §1, §2, §3, §4

[1] = RSK2, read-out: residual kinase activity
[2] = PDK1, 20 μM ATP, read-out: residual kinase activity
[3] = BRSK2, read-out: residual kinase activity
[4] = PAK5, read-out: residual kinase activity
[5] = CSK, read-out: residual kinase activity
[6] = BTK, read-out: residual kinase activity
[7] = read-out: residual kinase activity RSK2
[8] = read-out: residual kinase activity PDK1
[9] = read-out: residual kinase activity BRSK2
[10] = read-out: residual kinase activity PAK5
[11] = read-out: residual kinase activity CSK
[12] = read-out: residual kinase activity BTK

SMILES | remaining activity at 1 µM (RSK2; [1]) [%] | remaining activity at 10 µM (RSK2; [1]) [%] | remaining activity at 1 µM (PDK1; [2]) [%] | remaining activity at 10 µM (PDK1; [2]) [%] | remaining activity at 1 µM (BRSK2; [3]) [%] | remaining activity at 10 µM (BRSK2; [3]) [%] | remaining activity at 1 µM (PAK5; [4]) [%] | remaining activity at 10 µM (PAK5; [4]) [%] | remaining activity at 1 µM (CSK; [5]) [%] | remaining activity at 10 µM (CSK; [5]) [%] | remaining activity at 1 µM (BTK; [6]) [%] | remaining activity at 10 µM (BTK; [6]) [%] | remaining activity at 10 µM (RSK2; [7]) [%] | residual kinase activity RSK2 (RSK2) [%] | remaining activity at 10 µM (PDK1; [8]) [%] | residual kinase activity PDK1 (PDK1) [%] | remaining activity at 10 µM (BRSK2; [9]) [%] | residual kinase activity BRSK2 (BRSK2) [%] | remaining activity at 10 µM (PAK5; [10]) [%] | residual kinase activity PAK5 (PAK5) [%] | further results
O=C(NCCCNc1nc(Nc2cccc(N3CCCC3=O)c2)ncc1C1CC1)c1cccs1 [Example 47, Thiophene-2-carboxylic acid (3-{5-cyclopropyl-2-[3-(2-oxo-pyrrolidin-1-yl)-phenylamino]-pyrimidin-4-ylamino}-propyl)-amide. Hydrochloride salt] | 65 | 28 | 9 | 2 | 91 | 36 | 69 | 68 | 77 | 71 | 93 | 61 | – | – | – | – | – | – | – | – | –
O=C(NCCCNc1nc(Nc2cccnc2)ncc1C1CC1)c1cccs1 [Example 50, Thiophene-2-carboxylic acid {3-[5-cyclopropyl-2-(pyridin-3-ylamino)-pyrimidin-4-ylamino]-propyl}-amide] | 69 | 28 | 22 | 4 | 87 | 42 | 73 | 47 | 79 | 60 | 93 | 66 | – | – | – | – | – | – | – | – | –
O=C(NCCCNc1nc(Nc2cccc(F)c2)ncc1Br)C1CCC1 [Compound A, cyclobutanecarboxylic acid {3-[5-bromo-2-(3-fluoro-phenylamino)-pyrimidin-4-ylamino]-propyl}-amide, reference compound] | – | – | – | – | – | – | – | – | – | – | – | – | 9 | 38 | 1 | 6 | 6 | 23 | 14 | 46 | remaining activity at 10 µM (CSK; [11]): 51%; residual kinase activity CSK (CSK): 86%; remaining activity at 10 µM (BTK; [12]): 33%; residual kinase activity BTK (BTK): 94%
O=C(NCCCNc1nc(Nc2cccc(F)c2)ncc1C1CC1)C1CCC1 [Example 23, Cyclobutanecarboxylic acid {3-[5-cyclopropyl-2-(3-fluoro-phenylamino)-pyrimidin-4-ylamino]-propyl}-amide] | 44 | 14 | 44 | 10 | 64 | 26 | 74 | 56 | 77 | 69 | 74 | 25 | 14 | 44 | 10 | 44 | 26 | 64 | 56 | 74 | remaining activity at 10 µM (CSK; [11]): 69%; residual kinase activity CSK (CSK): 77%; remaining activity at 10 µM (BTK; [12]): 25%; residual kinase activity BTK (BTK): 74%
